# Source: publication PMC6803640, “Oligomeric state, hydrodynamic properties and target recognition of human Calcium and Integrin Binding protein 2 (CIB2)” (Scientific Reports, 2019)
# “And” between values parts separate entries of the source, which are not always exact repeats. Equal values may be shown once. Read-outs that look alike come from different tables or passages of the source. Where a SMILES comes first, the peptide text is derived from it.
# T1: human CIB2 (Homo sapiens, UniProt O75838)
# T1 construct: made in house
# T1 sequence (O75838 1-187): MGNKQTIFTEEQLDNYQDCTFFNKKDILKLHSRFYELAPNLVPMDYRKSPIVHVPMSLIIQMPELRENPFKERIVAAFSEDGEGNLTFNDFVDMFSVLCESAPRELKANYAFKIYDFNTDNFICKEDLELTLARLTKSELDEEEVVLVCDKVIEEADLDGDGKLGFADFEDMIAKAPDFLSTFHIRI
# Assays:
# human CIB2 = biological target: T1, human CIB2; test: SPR interaction of α7B peptides with immobilized CIB2; assay type: binding; conditions: for ka2 association rate constant, CIB2-α7B_M-CIB2 complex / koff / Kd: His-CIB2; for ka2 association rate constant, CIB2-α7B_M-CIB2 complex / kon / koff: average ± SEM; for kon: His-CIB2 on His-cap chip, peptide 230 nM–30 μM, read-out: ka1 association rate constant, CIB2-α7B_M complex; for Kd: ratio kd1/ka1, read-out: KD^app1 apparent affinity for the first binding event
# Description: SPR was also used to study quantitatively the interaction of CIB2 with one of its established targets, namely the cytoplasmic domain of integrin α7B[3],[7]. Three different peptides were used in the interaction experiments. A peptide corresponding to the membrane proximal segment of the cytoplasmic domain of α7B integrin (α7B_M), another peptide with the same amino acid content, but randomized sequence (α7B_Scrb) and a peptide covering the C-terminal region of the cytoplasmic domain of α7B integrin (α7B_C). Three different approaches were used. In a first approach, His-tagged CIB2 was initially coupled to the surface of a His-cap sensor chip (see Methods), thus ensuring homogeneous site-specific orientation, and then blocked via standard amine coupling. […] The minor differences in the spectra at the level of the phenylalanine band can be ascribed to the TEV-protease recognition site (ENLYFQ), uncleaved in the His-tagged protein. […] In a third approach, we used the same low levels of CIB2 immobilization via amine coupling described in the experiments to probe CIB2 dimerization (100–200 RU) and flowed the three peptides.
# The second approach (direct peptide immobilization) led to very low signals and unreproducible results and was not pursued any further. […] In spite of such differences, which might reflect both the heterogeneity of the surface and the different chemistry of immobilization, interaction results were consistent with one another. […] It should be noted that both Huang et al.[7] and Häger et al.[3] used peptides from mouse integrin, while we used the corresponding human sequences, which in the case of α7B_C lacks the tryptophan residue present in the mouse sequence. It is not uncommon that fluorescence spectroscopy interaction studies based on the peptide intrinsic fluorescence (CIB2 has no tryptophan residue) reveal some non-specific binding, especially when a highly hydrophobic protein such as CIB2 is the ligand. […] It cannot be excluded that a similar phenomenon occurred for murine α7B_C in the work by Häger et al.[3]. Our present results, based on accurate, label-free interaction studies clearly identify the region covered by α7B_M as the preferential binding site of CIB2 with α7B integrin.
# SPR titrations of α7B_M over homogeneously coupled CIB2 (approach 1) gave very reproducible results and were performed both in the presence of 1 mM Mg^2+ and in the co-presence of 1 mM Mg^2+ and 2 mM Ca^2+. Peptide concentration was varied in the 230 nM–30 μM range. As anticipated, sensorgrams could not fit to a 1:1 binding model, and the kinetic model that better fit the data was a bivalent analyte model (see Methods), in which one α7B_M peptide could bind to two CIB2 molecules. According to this scheme, binding of the peptide to the first CIB2 molecule would direct the binding to the second one, thus resulting in two sets of kinetic constants.
# Details of the protein and peptide immobilization procedures and experimental settings are elucidated in the Supplementary Information.
# Kinetic data were fitted according to a bivalent analyte model, were a CIB2 monomer (L) can bind an α7B_M peptide (A), and the resulting complex (AL) can bind to a second CIB2 molecule (AL2), with all processes being possibly reversible, as follows: A+L→ka1ALAL→kd1A+LAL+L→ka2AL2AL2→kd2AL+L […]
# CIB2 = conditions: fused with GFP and tdTomato; cited from earlier work
# Description: Our previous work with untagged purified CIB2 also concluded that CIB2 is dimeric. We now provide new lines of evidence that allow us to reconsider some of the previous findings in the light of MS ...
# Dynamic light scattering = assay type: physicochemical; conditions: 37 °C, fractions eluted from SEC (CIB2 A2 band), mean ± SEM; n = 15 (CIB2), 18 (Rec), 30 (CaM); 1.8 µM CIB2, 11 µM Rec, 7.4 µM CaM
# Procedure: DLS measurements were performed using Zetasizer Nano-S (Malvern Instruments) at 37 °C by setting the same parameters for hydrodynamic diameter estimation as in ref.[26]. The estimation was based on 15–30 measurements, each consisting of at least 13 repetitions; data in Table 1 are reported as mean ± standard error of mean (SEM). DLS samples for each protein are the same collected in the Analytical Size Exclusion Chromatography.
# His-tagged proteins, and then blocked via amine coupling as explained above. Preparation of the […]
# approximately 2250 RU of CIB2 immobilized. In binding experiments, peptide concentration was varied in the 230 nM- 30 μM range for both α7B_M, and α7B_C, and experiments were repeated 4 times, both with the HBS buffer described above (containing 1 mM MgCl2) and with further addition of 2 mM CaCl2. Flow rate was set to 20 μl min−1 in all binding experiments, and the dissociation […]
# Figure S1: DLS measurements of the SEC collected peaks. CIB2 band A2 (A), Rec (B) and CaM (C). Each data set consisted of 15-30 measurements (grey lines), with 13-15 repetitions each. Colored lines are referred to the average distribution. Temperature was set to 37°C and samples were equilibrated for 2 min before measurements.
# Figure S2: Time-resolved proteolysis experiments. […]
# [1] = reducing conditions, different cation-bound states; cited from earlier work
# Description: Moreover, DLS experiments performed with the samples collected immediately after elution from the SEC column measured a relatively high hydrodynamic diameter (d^Mg = 8.43 nm and d^Ca = 8.18 nm), which was also interpreted as an evidence of a dimeric protein[8]. […] According to a calibration curve obtained with globular proteins of known MW, these bands would correspond to an apparent MW (MW^SEC) of 35.9 kDa in the absence and of 36.7 kDa in the presence of the cross-linker, thus very similar to those obtained in our previo ...
Molecule,"SPR interaction with CIB2 (human CIB2; His-CIB2 capture (7.5 µM peptide, or 230 nM–30 μM) and amine-coupled untagged CIB2 (7.5–30 µM), 1 mM Mg^2+, 2 mM Ca^2+, experiments repeated 4 times)",first-event affinity in Mg^2+ + Ca^2+ compared to Mg^2+ alone (human CIB2; KD^app1),faster dissociation of the second CIB2 molecule in co-presence of Mg^2+ and Ca^2+ (human CIB2; Mg^2+ + Ca^2+ vs Mg^2+),affinity for CIB2 (human CIB2; SPR),"ka2 association rate constant, CIB2-α7B_M-CIB2 complex (human CIB2; bivalent analyte model, 1 mM Mg^2+ 2 mM Ca^2+, pH 7.5, N = 15)","ka2 association rate constant, CIB2-α7B_M-CIB2 complex (human CIB2; bivalent analyte model, 1 mM Mg^2+, 230 nM–30 μM, pH 7.5, N = 16)","kon (human CIB2; bivalent analyte model, 1 mM Mg^2+, 20 mM HEPES pH 7.5, 150 mM KCl, 1 mM DTT, 50 µM EDTA, 0.005% Tween, N = 16)","association of first CIB2 faster in sole Mg^2+ vs co-presence of Ca^2+ (fold) (human CIB2; first binding event, Mg^2+ vs Mg^2+ + Ca^2+)","dissociation from CIB2 (human CIB2; followed for 240 s, flow rate 20 μl min−1)","koff (human CIB2; pH 7.5, bivalent analyte model, 1 mM Mg^2+ 2 mM Ca^2+, pH 7.5, N = 15, read-out: kd1 dissociation rate constant, CIB2-α7B_M complex)","koff (human CIB2; pH 7.5, bivalent analyte model, 1 mM Mg^2+ 2 mM Ca^2+, pH 7.5, N = 15, read-out: kd2 dissociation rate constant, CIB2-α7B_M-CIB2 complex)","koff (human CIB2; pH 7.5, bivalent analyte model, 1 mM Mg^2+, 230 nM–30 μM, pH 7.5, N = 16, read-out: kd1 dissociation rate constant, CIB2-α7B_M complex)","koff (human CIB2; pH 7.5, bivalent analyte model, 1 mM Mg^2+, 230 nM–30 μM, pH 7.5, N = 16, read-out: kd2 dissociation rate constant, CIB2-α7B_M-CIB2 complex)","kon (human CIB2; pH 7.5, bivalent analyte model, 1 mM Mg^2+ 2 mM Ca^2+, pH 7.5, N = 15)","Kd (human CIB2; 1 mM Mg^2+ 2 mM Ca^2+, pH 7.5, N = 15)","Kd (human CIB2; 1 mM Mg^2+, pH 7.5, N = 16)","association of second CIB2 faster in sole Mg^2+ vs co-presence of Ca^2+ (fold) (human CIB2; second binding event, Mg^2+ vs Mg^2+ + Ca^2+)",dimer formation (CIB2),DLS Ø hydrodynamic diameter (Dynamic light scattering),"apparent MW (MW^SEC), previous work [1]"
CSCC[C@H](NC(=O)[C@H](CCCCN)NC(=O)[C@H](Cc1c[nH]c2ccccc12)NC(=O)[C@H](CC(C)C)NC(=O)[C@H](CC(C)C)NC(=O)[C@H](CC(C)C)NC(C)=O)C(=O)NCC(=O)N[C@@H](Cc1ccccc1)C(=O)N[C@@H](Cc1ccccc1)C(=O)N[C@@H](CCCCN)C(=O)N[C@@H](CCCNC(=N)N)C(=O)N[C@@H](C)C(=O)N[C@@H](CCCCN)C(=O)N[C@@H](Cc1c[nH]cn1)C(=O)N1CCC[C@H]1C(=O)N[C@@H](CCC(=O)O)C(N)=O [α7B_M] (Ac-LLLWKMGFFKRAKHPE-NH2),binds to CIB2 significantly stronger than the control peptide α7B_Scrb,roughly half affinity,2.5 times,relatively low affinity interaction,(4.2 ± 0.5) × 10^−4 RU^−1s^−1,(1.9 ± 0.4) × 10^−3 RU^−1s^−1,31000 M⁻¹ s⁻¹,2 fold,complete protein-peptide dissociation,0.4 s⁻¹,0.053 s⁻¹,0.36 s⁻¹,0.02 s⁻¹,16000 M⁻¹ s⁻¹,25 ± 5 µM,11.6 ± 1.8 µM,5 fold,–,–,–
"CIB2: Recombinant human CIB2, Ca^2+ and Mg^2+-binding protein (protein, left off: His tag, end not stated, cleaved) MGNKQTIFTEEQLDNYQDCTFFNKKDILKLHSRFYELAPNLVPMDYRKSPIVHVPMSLIIQMPELRENPFKERIVAAFSEDGEGNLTFNDFVDMFSVLCESAPRELKANYAFKIYDFNTDNFICKEDLELTLARLTKSELDEEEVVLVCDKVIEEADLDGDGKLGFADFEDMIAKAPDFLSTFHIRI",–,–,–,–,–,–,–,–,–,–,–,–,–,–,–,–,–,found to form dimers,5.4 ± 0.2 nm and 5.4 ± 0.2 [15] nm,37–39 kDa
